According to patent publication US8314234B2, “Bicyclic pyrimidine kinase inhibitors” (Janssen Pharmaceutica N.V., priority 2006, dated 2012):

What was measured:
A375 malignant melanoma = experiment: Cell Proliferation Inhibition Assay (14C-thymidine incorporation), A375; assay type: cell-based; conditions: Homo sapiens, A-375
Description: (§1) The ability of a test compound to inhibit unregulated cell proliferation may be determined by measuring incorporation of ^14C-labelled thymidine into newly synthesized DNA within cell lines derived from carcinomas originating from several tissues. Accordingly, the anti-proliferative effect of a compound on cells with a variety of phenotypes may be determined.
(§2) Carcinoma cell lines include those such as HeLa cervical adenocarcinoma (American Type Culture Collection (ATCC), Virginia, Cat. #CCL-2), A375 malignant melanoma (ATCC CRL-1619), SK-OV-3 ovarian adenocarcinoma (ATCC HTB-77), HCT-116 colon carcinoma (CCL-247), PC-3 prostate adenocarcinoma (ATCC CRL-1435), and MDA-MB-231 (Xenogen Corp.)
(§3) The carcinoma cells are trypsinized and counted. The cells (3000-8000 count) are added to each well of a 96-well CytoStar tissue culture treated scintillating microplate (Amersham #RPNQ0160) in complete medium (100 μL) and the plate is then incubated in complete medium for 24 hrs at 37° C. in an inert atmosphere containing 5% CO2. Test compound (1 μL) in 100% DMSO is added to the plate test-wells with DMSO only added to control-wells. The plate is incubated in complete medium for a second 24 hr period at 37° C. in an atmosphere containing 5% CO2.
(§4) An aliquot of a solution of Methyl ^14C-thymidine (56 mC/mmol) (NEN #NEC568 or Amersham #CFA532) and complete medium (20 uL to provide 0.2 μCi/well) is then added to each well and the plate is incubated for a third 24 hr period at 37° C. in an atmosphere containing 5% CO2. The plate contents are then discarded, the plate is washed twice with PBS (200 μL) and then PBS (200 μL) is added to each well. The plate is sealed and the degree of methyl ^14C-thymidine incorporation is quantified on a Packard Top Count.

CDK1 = molecular target: T1, CDK1 (Homo sapiens, UniProt P06493); experiment: CDK-1 screening assay; assay type: biochemical
T1 construct: purchased New England Biolabs, Beverly, Mass; 6020; host or cells: insect cells
Experimental: (§5) 70 μL of the kinase reaction mixture was dispensed into the well of a streptavidin coated FlashPlate™ (Cat. #SMP103, NEN, Boston, Mass.).
(§6) Test compound stock in 100% DMSO (1 μL) was added to the wells resulting in a final concentration of 1% DMSO in the reaction with a 100 μL final reaction volume. Each enzyme was diluted in 50 mM Tris-HCl pH=8.0, 0.1% BSA and 30 μL was added to each well to initiate the reaction. The reaction was incubated for one hour at 30° C. At the end of the 1 hr incubation, the reaction was terminated by aspirating the mixture from the plate and washing the wells twice with PBS containing 100 mM EDTA. The biotinylated peptide substrate became immobilized on the Flashplate and the incorporation of ^33P-γ-ATP was measured by reading the plate on a scintillation counter. Inhibition of the enzymatic activity was measured by observing a reduced amount of ^33P-γ-ATP incorporated into the immobilized peptide.
(§7) A maximum and minimum signal for the assay was determined on each plate. The percent inhibition of a test compound was calculated according to the formula: […]
(§8) The term “ND” means “not determined.”

HCT-116 colon carcinoma = experiment: Cell Proliferation Inhibition Assay (14C-thymidine incorporation), HCT-116; assay type: cell-based; conditions: Homo sapiens
Description: as §1, §2, §3, §4

CDK2 = molecular target: T2, CDK2 (Homo sapiens, UniProt P24941); experiment: CDK-2 screening assay; assay type: biochemical
T2 construct: purchased Upstate Biotech, Lake Placid, N.Y
Experimental: as §5, §6
The CDK2 enzyme in complex with cyclin A is commercially available (Upstate Biotech, Lake Placid, N.Y.).
as §7, §8

EGFR = molecular target: T3, EGFR (Homo sapiens, UniProt P00533); experiment: EGFR Kinase Assay; assay type: biochemical; conditions: test concentration of 2 μM
T3 construct: intracellular portion of EGFR started at nucleotide 2189 (corresponding to amino acid 667) and ended at the termination codon; made in house; host or cells: Sf9 insect cells (baculovirus)
Description: The EGFR kinase used was a fusion of Glutathione-S-Transferase (GST) and a PCR amplified intracellular portion of EGFR (NM_005228). The intracellular portion of EGFR started at nucleotide 2189 (corresponding to amino acid 667) and ended at the termination codon. The portion was PCR amplified with primers that added the lambda attB sequences to each end, recombined into an entry vector, then into a GST destination vector (as described in Gateway Technologies Manual by Invitrogen Corporation, Carlsbad, Calif.).
The destination vector was recombined in the DH10BAC strain of bacteria to produce a bacmid. The bacmid was transfected into Sf9 cells and the supernatant containing the baculovirus was collected. The GSTEGFR protein was purified using large cultures of Sf9 cells infected with stock virus. After an appropriate period of time, the cells were collected and lysed. The GSTEGFR was then purified from the lysate on Glutathione-Sepharose columns (as described by Amersham Biosciences, Buckinghamshire, United Kingdom).
The EGFR substrate was prepared by biotinylating polyGluTyr (128 mg) (Sigma, St. Louis, Mo.) in a 1×PBS buffer incubated together with a 12-fold molar excess of Sulfo-NHS-LC-Biotin on ice for at least 2 hrs. The free biotin was separated from the biotinylated polyGluTyr on a gel filtration column.
A mixture of a 10× kinase buffer (500 mM Tris at pH 8.0, 100 mM Magnesium Chloride and 1 mM Sodium Vanadate), DTT (1 mM final from 500 mM stock), ATP (5 μM final from 10 mM stock), biotinylated polyGluTyr (10 μg/μL stock), γ-^33P ATP (10 μCi/μL stock) and water was added to each well (90 μL/well) of a Streptavidin Flashplate (Perkin Elmer, Wellesley, Mass.).
Test compound in 100% DMSO (2 μL) was added to the appropriate wells. Diluted GSTEGFR (1:300 dilution in 50 mM Tris at pH 8.0 and 0.1% bovine serum albumin) (10 μL) was added to the wells to initiate the reactions.
The plates were incubated at 30° C. for 1 hr with shaking. The reacted contents were removed and the plates were sequentially washed three times with a 1×PBS stop buffer (300 μL without Magnesium and Calcium) and 100 mM EDTA. After the final wash, the same stop buffer (200 μL) was added to the wells. The plates were then sealed and read on the TopCount scintillation counter.
Test compounds were assayed in triplicate at 16 concentrations at half-log dilutions starting at 200 uM. A maximum and minimum signal for the assay was determined on each plate. The percent inhibition of a test compound was calculated according to the formula
For a series of test concentrations, the IC50 was derived by graphing percent inhibition against the log of the concentrations tested for a given compound. The percent inhibition results are shown in Table 1 at a test concentration of 2 μM. For those compounds with an IC50, the IC50 value is shown in parentheses.

[1] = tested on: HeLa cervical adenocarcinoma; experiment: Cell Proliferation Inhibition Assay (14C-thymidine incorporation), HeLa; assay type: cell-based; conditions: Homo sapiens
Description: as §1, §2, §3, §4

VEGFR2 = VEGFR2 (Rattus norvegicus, UniProt O08775); experiment: VEGFR2 screening assay; assay type: biochemical
Experimental: A kinase reaction mixture was prepared containing 50 mM Tris-HCl pH=8, 10 mM MgCl2, 0.1 mM […], 1 mM DTT, 10 μM ATP, 0.025 μM biotinylated histone-H1 peptide substrate and 0.2 μCuries per well ^33P-γ-ATP (2000-3000 Ci/mmol). 70 μL of the kinase reaction mixture was dispensed into the well of a streptavidin coated FlashPlate™ (Cat. #SMP103, NEN, Boston, Mass.).
as §6
The VEGF-R2 enzyme is a fusion protein containing a polyhistidine tag at the N terminus followed by amino acids 786 to 1343 of the rat VEGF-R2 kinase domain (Accession number U93306). The assay used 150 ng of the N-terminal biotinylated peptide biotin-[…]-amide SEQ ID NO: 2) (VEGF-R2) per well.
as §7
For a series of test concentrations, the IC50 was derived by graphing percent inhibition against the log of the concentrations tested for a given compound with results shown in Table 2. For those compounds without an IC50, the inhibition values in percent are shown at a test concentration of 2 μM. The term “ND” means “not determined.”

Chain of VEGFR2 (O08775 786-1343): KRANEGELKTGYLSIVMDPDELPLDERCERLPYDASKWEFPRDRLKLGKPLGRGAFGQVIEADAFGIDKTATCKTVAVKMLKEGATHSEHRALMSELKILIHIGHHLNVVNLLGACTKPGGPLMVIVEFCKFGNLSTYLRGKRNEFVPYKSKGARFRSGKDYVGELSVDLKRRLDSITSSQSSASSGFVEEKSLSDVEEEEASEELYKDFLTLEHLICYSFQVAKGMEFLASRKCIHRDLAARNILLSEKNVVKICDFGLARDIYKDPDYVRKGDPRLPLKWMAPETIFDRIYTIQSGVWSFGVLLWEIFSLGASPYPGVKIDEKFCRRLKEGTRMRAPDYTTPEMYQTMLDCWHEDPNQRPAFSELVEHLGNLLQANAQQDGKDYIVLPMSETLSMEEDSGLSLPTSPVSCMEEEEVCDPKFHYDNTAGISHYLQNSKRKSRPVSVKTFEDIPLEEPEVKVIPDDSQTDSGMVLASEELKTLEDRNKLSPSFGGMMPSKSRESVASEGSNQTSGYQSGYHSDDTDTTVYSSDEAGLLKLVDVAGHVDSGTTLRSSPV
T3 sequence (P00533 669-1210 limits assumed): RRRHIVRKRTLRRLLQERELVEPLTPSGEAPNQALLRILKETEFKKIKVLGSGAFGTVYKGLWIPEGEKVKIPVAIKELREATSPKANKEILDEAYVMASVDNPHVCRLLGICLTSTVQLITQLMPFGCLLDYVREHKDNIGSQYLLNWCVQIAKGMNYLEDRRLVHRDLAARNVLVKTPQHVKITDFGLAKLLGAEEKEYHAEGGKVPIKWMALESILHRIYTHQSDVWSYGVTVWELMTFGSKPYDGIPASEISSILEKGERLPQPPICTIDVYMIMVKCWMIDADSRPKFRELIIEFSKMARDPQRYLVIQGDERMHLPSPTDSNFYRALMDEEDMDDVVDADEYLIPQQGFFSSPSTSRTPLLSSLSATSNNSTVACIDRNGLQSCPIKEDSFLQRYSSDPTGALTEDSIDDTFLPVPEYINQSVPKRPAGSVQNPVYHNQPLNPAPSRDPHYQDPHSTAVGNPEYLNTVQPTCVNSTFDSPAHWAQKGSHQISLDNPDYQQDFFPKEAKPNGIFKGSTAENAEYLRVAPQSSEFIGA
T1 sequence (P06493 whole entry): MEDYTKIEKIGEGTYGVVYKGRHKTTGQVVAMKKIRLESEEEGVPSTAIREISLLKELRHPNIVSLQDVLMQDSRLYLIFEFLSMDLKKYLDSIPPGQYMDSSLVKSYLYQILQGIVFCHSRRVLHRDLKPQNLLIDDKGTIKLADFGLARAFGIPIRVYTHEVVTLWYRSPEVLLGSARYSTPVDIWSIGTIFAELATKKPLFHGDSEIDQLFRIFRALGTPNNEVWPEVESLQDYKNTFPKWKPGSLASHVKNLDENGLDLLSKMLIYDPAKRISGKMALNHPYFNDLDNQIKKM
T1 sequence (P14635 whole entry partner): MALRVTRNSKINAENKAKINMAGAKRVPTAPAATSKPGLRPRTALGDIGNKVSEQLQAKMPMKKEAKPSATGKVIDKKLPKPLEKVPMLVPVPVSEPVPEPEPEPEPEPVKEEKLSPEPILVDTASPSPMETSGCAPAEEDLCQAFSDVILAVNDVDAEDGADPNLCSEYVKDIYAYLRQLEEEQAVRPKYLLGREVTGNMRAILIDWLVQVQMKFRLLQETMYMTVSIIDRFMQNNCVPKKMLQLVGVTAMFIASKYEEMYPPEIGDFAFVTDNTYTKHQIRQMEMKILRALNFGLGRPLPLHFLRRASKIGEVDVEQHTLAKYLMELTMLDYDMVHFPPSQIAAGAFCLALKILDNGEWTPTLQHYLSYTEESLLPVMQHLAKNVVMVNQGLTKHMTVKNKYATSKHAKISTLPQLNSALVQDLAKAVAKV

Row | SMILES | IC50 (A375 malignant melanoma) [µM] | IC50 (CDK1) [µM] | IC50 (HCT-116 colon carcinoma) [µM] | IC50 (CDK2) [µM] | inhibition at 2 µM (EGFR) [%] | IC50 [1] [µM] | IC50 (VEGFR2) [µM]
1 | O=S(=O)(NCCO)c1ccc(Nc2nc(Nc3ccc(S(=O)(=O)NCCO)cc3)c3cn[nH]c3n2)cc1 [Cpd 3, N^4,N^6-bis-{4-[(2-hydroxy-ethyl)-amino-sulfonyl]-phenyl}-1H-pyrazolo[3,4-d]pyrimidine-4,6-diamine] | 32.6 | 0.079 | 100 | 0.018 | 78 | 10 | 0.328
2 | NS(=O)(=O)c1ccc(Nc2nc(Nc3ccccn3)c3cn[nH]c3n2)cc1 [Cpd 8, 4-[4-(pyridin-2-ylamino)-1H-pyrazolo[3,4-d]pyrimidin-6-ylamino]-benzenesulfonamide] | 100 | 24.7 | 100 | 7.62 | 25 | 100 | 6.98
